Source: patent US20150105252A1, “SUBSTITUTED PYRAZOLES AS HERBICIDES” (E I DU PONT DE NEMOURS AND COMPANY, priority 2013, published 2015)

Columns and labels:
oilseed rape [1] = test: Test D preemergence; type: in vivo, Brassica napus; conditions: for Plant response rating, Oilseed Rape: Preemergence, scale 0 to 100
From the text: (§1) Seeds of plant species selected from bluegrass (annual bluegrass, Poa annua), blackgrass (Alopecurus myosuroides), canarygrass (littleseed canarygrass, Phalaris minor), chickweed (common chickweed, Stellaria media), galium (catchweed bedstraw, Galium aparine), bromegrass, downy (downy bromegrass, Bromus tectorum), field poppy (Papaver rhoeas), field violet (Viola arvensis), foxtail, green (green foxtail, Setaria viridis), deadnettle (henbit deadnettle, Lamium amplexicaule), ryegrass, Italian (Italian ryegrass, Lolium multiflorum), kochia (Kochia scoparia), lambsquarters (Chenopodium album), oilseed rape (Brassica napus), pigweed (redroot pigweed, Amaranthus retroflexus), chamomile (scentless chamomile, Matricaria inodora), speedwell (bird's-eye speedwell, Veronica persica), barley, spring (spring barley, Hordeum vulgare), wheat, spring (spring wheat, Triticum aestivum), buckwheat, wild (wild buckwheat, Polygonum convolvulus), mustard, wild (wild mustard, Sinapis arvensis), oat, wild (wild oat, Avena fatua), radish, wild (wild radish, Raphanus raphanistrum), windgrass (Apera spica-venti), Russian thistle (Salsola kali), barley, winter (winter barley, Hordeum vulgare), and wheat, winter (winter wheat, Triticum aestivum) were planted into a silt loam soil and treated preemergence with test chemicals formulated in a non-phytotoxic solvent mixture which included a surfactant.
(§2) At the same time, these species were planted in pots containing Redi-Earth® planting medium (Scotts Company, 14111 Scottslawn Road, Marysville, Ohio 43041) comprising spaghnum peat moss, vermiculite, wetting agent and starter nutrients and treated with postemergence applications of the test chemicals formulated in the same manner. Plants ranged in height from 2 to 18 cm (1- to 4-leaf stage). Treated plants and controls were maintained in a controlled growth environment for 14 to 21 days after which time all species were compared to controls and visually evaluated. Plant response ratings, summarized in Table D, are based on a scale of 0 to 100 where 0 is no effect and 100 is complete control. A dash (-) response means no test result.

field poppy [2] = test: Test D postemergence; type: in vivo, Papaver rhoeas; conditions: scale 0 to 100
From the text: as §1, §2

windgrass = test: Test D postemergence; type: in vivo, Apera spica-venti; conditions: scale 0 to 100
From the text: as §1, §2

mustard, wild = test: Test D preemergence; type: in vivo, Sinapis arvensis; conditions: for Plant response rating, Mustard, Wild: Preemergence, scale 0 to 100
From the text: as §1, §2

field poppy [3] = test: Test D preemergence; type: in vivo, Papaver rhoeas; conditions: for Plant response rating, Field Poppy: Preemergence, scale 0 to 100
From the text: as §1, §2

blackgrass [4] = test: Test D postemergence; type: in vivo, Alopecurus myosuroides; conditions: scale 0 to 100
From the text: as §1, §2

bluegrass [5] = test: Test D preemergence; type: in vivo, Poa annua; conditions: for Plant response rating, Bluegrass: Preemergence, scale 0 to 100
From the text: as §1, §2

blackgrass [6] = test: Test D preemergence; type: in vivo, Alopecurus myosuroides; conditions: for Plant response rating, Blackgrass: Preemergence, scale 0 to 100
From the text: as §1, §2

foxtail, green = test: Test D postemergence; type: in vivo, Setaria viridis; conditions: scale 0 to 100
From the text: as §1, §2

chickweed [7] = test: Test D preemergence; type: in vivo, Stellaria media; conditions: for Plant response rating, Chickweed: Preemergence, scale 0 to 100
From the text: as §1, §2

galium = test: Test D postemergence; type: in vivo, Galium aparine; conditions: scale 0 to 100
From the text: as §1, §2

bluegrass [8] = test: Test D postemergence; type: in vivo, Poa annua; conditions: scale 0 to 100
From the text: as §1, §2

ryegrass, Italian = test: Test D preemergence; type: in vivo, Lolium multiflorum; conditions: for Plant response rating, Ryegrass, Italian: Preemergence, scale 0 to 100
From the text: as §1, §2

chickweed [9] = test: Test D postemergence; type: in vivo, Stellaria media; conditions: scale 0 to 100
From the text: as §1, §2

bromegrass, downy = test: Test D postemergence; type: in vivo, Bromus tectorum; conditions: scale 0 to 100
From the text: as §1, §2

oat, wild = test: Test D preemergence; type: in vivo, Avena fatua; conditions: for Plant response rating, Oat, Wild: Preemergence, scale 0 to 100
From the text: as §1, §2

wheat, spring = test: Test D postemergence; type: in vivo, Triticum aestivum; conditions: scale 0 to 100
From the text: as §1, §2

wheat, winter = test: Test D postemergence; type: in vivo, Triticum aestivum; conditions: scale 0 to 100
From the text: as §1, §2

oilseed rape [10] = test: Test D postemergence; type: in vivo, Brassica napus; conditions: scale 0 to 100
From the text: as §1, §2

[11] = 16 g ai/ha, taken as preemergence

For `Cc1cc(C(=O)NCC(F)(F)F)nn1Cc1ccnc(C(F)(F)F)c1` [Compound 74], the “Plant response rating (scale 0 to 100), Oilseed Rape” value (oilseed rape [1]; [11]) was 5, the “Plant response rating, Oilseed Rape” value (oilseed rape [1]; 31 g ai/ha) was 15 and the “Plant response rating, Oilseed Rape” value (oilseed rape [1]; 62 g ai/ha) was 40. The “Plant response rating, Oilseed Rape” value (oilseed rape [1]; 125 g ai/ha) was 45, the “Plant response rating, Field Poppy” value (field poppy [2]; Postemergence, 16 g ai/ha) was 10 and the “Field Poppy plant response rating” value (field poppy [2]; Postemergence, 31 g ai/ha) was 75. For the same molecule, the “Field Poppy plant response rating” value (field poppy [2]; Postemergence, 125 g ai/ha) was 20, the “Field Poppy plant response rating” value (field poppy [2]; postemergence, 62 g ai/ha) was 30 and the “Plant response rating, Windgrass” value (windgrass; Postemergence, 16 g ai/ha) was 0. For the same molecule, the “Windgrass plant response rating” value (windgrass; Postemergence, 31 g ai/ha) was 0, the “Windgrass plant response rating” value (windgrass; Postemergence, 125 g ai/ha) was 5 and the “Windgrass plant response rating” value (windgrass; postemergence, 62 g ai/ha) was 0. The “Plant response rating (scale 0 to 100), Mustard, Wild” value (mustard, wild; [11]) was 15, the “Plant response rating, Mustard, Wild” value (mustard, wild; 31 g ai/ha) was 25 and the “Plant response rating, Mustard, Wild” value (mustard, wild; 62 g ai/ha) was 25. For the same molecule, the “Plant response rating, Mustard, Wild” value (mustard, wild; 125 g ai/ha) was 80, the “Plant response rating (scale 0 to 100), Field Poppy” value (field poppy [3]; [11]) was 50 and the “Plant response rating, Field Poppy” value (field poppy [3]; 31 g ai/ha) was 80. For the same molecule, the “Plant response rating, Field Poppy” value (field poppy [3]; 62 g ai/ha) was 95, the “Plant response rating, Field Poppy” value (field poppy [3]; 125 g ai/ha) was 100 and the “Plant response rating, Blackgrass” value (blackgrass [4]; Postemergence, 16 g ai/ha) was 0. For the same molecule, the “Blackgrass plant response rating” value (blackgrass [4]; Postemergence, 31 g ai/ha) was 0, the “Blackgrass plant response rating” value (blackgrass [4]; Postemergence, 125 g ai/ha) was 0 and the “Blackgrass plant response rating” value (blackgrass [4]; postemergence, 62 g ai/ha) was 5. For the same molecule, the “Plant response rating (scale 0 to 100), Bluegrass” value (bluegrass [5]; [11]) was 0, the “Plant response rating, Bluegrass” value (bluegrass [5]; 31 g ai/ha) was 0 and the “Plant response rating, Bluegrass” value (bluegrass [5]; 62 g ai/ha) was 0. The “Plant response rating, Bluegrass” value (bluegrass [5]; 125 g ai/ha) was 5, the “Plant response rating (scale 0 to 100), Blackgrass” value (blackgrass [6]; [11]) was 0 and the “Plant response rating, Blackgrass” value (blackgrass [6]; 31 g ai/ha) was 0. For the same molecule, the “Plant response rating, Blackgrass” value (blackgrass [6]; 62 g ai/ha) was 10, the “Plant response rating, Blackgrass” value (blackgrass [6]; 125 g ai/ha) was 15 and the “Plant response rating, Foxtail, Green” value (foxtail, green; Postemergence, 16 g ai/ha) was 0. For the same molecule, the “Foxtail, Green plant response rating” value (foxtail, green; Postemergence, 31 g ai/ha) was 10, the “Foxtail, Green plant response rating” value (foxtail, green; Postemergence, 125 g ai/ha) was 40 and the “Foxtail, Green plant response rating” value (foxtail, green; postemergence, 62 g ai/ha) was 15. For the same molecule, the “Plant response rating (scale 0 to 100), Chickweed” value (chickweed [7]; [11]) was 20, the “Plant response rating, Chickweed” value (chickweed [7]; 31 g ai/ha) was 70 and the “Plant response rating, Chickweed” value (chickweed [7]; 62 g ai/ha) was 100. The “Plant response rating, Chickweed” value (chickweed [7]; 125 g ai/ha) was 100, the “Plant response rating, Galium” value (galium; Postemergence, 16 g ai/ha) was 10 and the “Galium plant response rating” value (galium; Postemergence, 31 g ai/ha) was 20. The “Galium plant response rating” value (galium; Postemergence, 125 g ai/ha) was 70, the “Galium plant response rating” value (galium; postemergence, 62 g ai/ha) was 40 and the “Plant response rating, Bluegrass” value (bluegrass [8]; Postemergence, 16 g ai/ha) was 5. For the same molecule, the “Bluegrass plant response rating” value (bluegrass [8]; Postemergence, 31 g ai/ha) was 5, the “Bluegrass plant response rating” value (bluegrass [8]; Postemergence, 125 g ai/ha) was 5 and the “Bluegrass plant response rating” value (bluegrass [8]; postemergence, 62 g ai/ha) was 5. For the same molecule, the “Plant response rating (scale 0 to 100), Ryegrass, Italian” value (ryegrass, Italian; [11]) was 0, the “Plant response rating, Ryegrass, Italian” value (ryegrass, Italian; 31 g ai/ha) was 0 and the “Plant response rating, Ryegrass, Italian” value (ryegrass, Italian; 62 g ai/ha) was 0. The “Plant response rating, Ryegrass, Italian” value (ryegrass, Italian; 125 g ai/ha) was 0, the “Plant response rating, Chickweed” value (chickweed [9]; Postemergence, 16 g ai/ha) was 15 and the “Chickweed plant response rating” value (chickweed [9]; Postemergence, 31 g ai/ha) was 35. The “Chickweed plant response rating” value (chickweed [9]; Postemergence, 125 g ai/ha) was 65, the “Chickweed plant response rating” value (chickweed [9]; postemergence, 62 g ai/ha) was 25 and the “Plant response rating, Bromegrass, Downy” value (bromegrass, downy; Postemergence, 16 g ai/ha) was 0. The “Bromegrass, Downy plant response rating” value (bromegrass, downy; Postemergence, 31 g ai/ha) was 0, the “Bromegrass, Downy plant response rating” value (bromegrass, downy; Postemergence, 125 g ai/ha) was 0 and the “Bromegrass, Downy plant response rating” value (bromegrass, downy; postemergence, 62 g ai/ha) was 0. For the same molecule, the “Plant response rating (scale 0 to 100), Oat, Wild” value (oat, wild; [11]) was 20, the “Plant response rating, Oat, Wild” value (oat, wild; 31 g ai/ha) was 10 and the “Plant response rating, Oat, Wild” value (oat, wild; 62 g ai/ha) was 10. The “Plant response rating, Oat, Wild” value (oat, wild; 125 g ai/ha) was 30, the “Plant response rating, Wheat, Spring” value (wheat, spring; Postemergence, 16 g ai/ha) was 0 and the “Wheat, Spring plant response rating” value (wheat, spring; Postemergence, 31 g ai/ha) was 0. For the same molecule, the “Wheat, Spring plant response rating” value (wheat, spring; Postemergence, 125 g ai/ha) was 5, the “Wheat, Spring plant response rating” value (wheat, spring; postemergence, 62 g ai/ha) was 0 and the “Plant response rating, Wheat, Winter” value (wheat, winter; Postemergence, 16 g ai/ha) was 0. The “Wheat, Winter plant response rating” value (wheat, winter; Postemergence, 31 g ai/ha) was 0, the “Wheat, Winter plant response rating” value (wheat, winter; Postemergence, 125 g ai/ha) was 0 and the “Wheat, Winter plant response rating” value (wheat, winter; postemergence, 62 g ai/ha) was 0. For the same molecule, the “Plant response rating, Oilseed Rape” value (oilseed rape [10]; Postemergence, 16 g ai/ha) was 15, the “Oilseed Rape plant response rating” value (oilseed rape [10]; Postemergence, 31 g ai/ha) was 20 and the “Oilseed Rape plant response rating” value (oilseed rape [10]; Postemergence, 125 g ai/ha) was 35. For the same molecule, the “Oilseed Rape plant response rating” value (oilseed rape [10]; postemergence, 62 g ai/ha) was 25.
